Measurements published in patent US20250075248A1, “SYSTEMS, METHODS, AND DEVICES FOR ANTIMICROBIAL SUSCEPTIBILITY TESTING” (Deepull Diagnostics S.L., priority 2022, published 2025).
Converted amounts (≈) assume the structure as drawn.

Experiments:
Type in all cases: cell-based
[1] = test system: Escherichia coli susceptible (ATCC25922); experiment: Fast (1 hour) high dose detection of resistant bacteria by fluorescence microscopy
Experimental: (§1) To rapidly detect high resistant bacteria to a particular antimicrobial agent, bacteria were grown during a short period of time (1 hour) in the presence of high dose of that antimicrobial agent. Two strains of Escherichia coli, one susceptible (ATCC25922) and the other resistant (ATCC700891) to ampicillin were grown until an exponential phase in culture media. Bacteria cultures were diluted in culture media (Mueller Hinton cation adjusted broth) and were incubated at a final concentration of 2×10^4 CFU/mL during 1 hour at 37° C. in the presence of ampicillin at a final concentration of 128 mg/L, 64 mg/L, and 32 mg/L in a final volume of 10 μL. Three replicates were performed for each antibiotic concentration.
(§2) Samples were visualized at time 0 that represents bacteria before any incubation and after 1 hour incubation. 5 μL of each sample were transferred to a 384-well plate with flat polystyrene film bottom and incubated with fluorescence dyes (SYBR Green and Propidium Iodide) during 10 minutes at room temperature in the dark. The 384-well plate was centrifuged during 1 minute at 3000 g in a swinging-bucket movement and observed in an inverted fluorescence microscope. For each sample a composite image covering the bottom of each well was constructed. Images were analyzed with a custom software to count bacteria, detect filamentous bacteria, counts red bacteria, and record the brightness of bacteria. These images are illustrated in FIG. 26A.

[2] = test system: Escherichia coli resistant (ATCC700891); experiment: as above
Experimental: as §1, §2

[3] = test system: Escherichia coli resistant (ATCC700891); experiment: Broth microdilution method MIC; conditions: E. coli ATCC700891, read-out: MIC according to broth microdilution method
[4] = test system: Escherichia coli susceptible (ATCC25922); experiment: Broth microdilution method MIC; conditions: E. coli ATCC25922, read-out: MIC according to broth microdilution method
[5] = 128 mg/L, 64 mg/L and 32 mg/L, 1 hour at 37° C.

MIC [3]: ≥ 128 µg/mL
MIC [4]: 4 µg/mL (≈ 11.4 µM)
SMILES: CC1(C)S[C@@H]2[C@H](NC(=O)[C@H](N)c3ccccc3)C(=O)N2[C@H]1C(=O)O [ampicillin, Ampicillin]
bacterial growth after 1 hour incubation [1, 5]: does not grow
red (Propidium Iodide, dead) bacteria after 1 hour incubation ([1]; at 128 mg/L): presence of red bacteria
bacterial morphology after 1 hour incubation ([1]; in the three concentrations tested (128, 64, 32 mg/L)): filamentous form
bacterial growth after 1 hour incubation [2, 5]: showed growth
filamentous or red bacteria after 1 hour incubation ([2]; all three tested concentrations (128, 64, 32 mg/L)): without presence of filamentous bacteria or red bacteria
